Assay results taken from ChEMBL document CHEMBL1201862, “PubChem BioAssay data set” (2004).
Active and inactive are the calls of the source.

Experiments:
[1] = target: Neurotensin receptor type 1 (Homo sapiens, UniProt P30989); assay type: functional;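 further: Image-based confirmatory dose-response assay measuring agonist activity at NTR1; NTR1-expressing U2OS osteosarcoma cells imaged for beta-arrestin GFP spot formation; agonist potency where compounds increase beta-arrestin recruitment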
[2] = Luminescence Cell-Based Dose Retest to Confirm Inhibitors of Cancer Stem Cells. [Related pubchem assays (depositor defined):AID2717, AID2721]; assay type: functional; settings: Homo sapiens
[3] = target: Multidrug resistance protein CDR2 (Candida albicans (strain SC5314 / ATCC MYA-2876) (Yeast), UniProt P78595); test: inhibition of Nile Red efflux via Candida CDR2 – S. cerevisiae AD1-8u, singleplex, Cherry Pick1 hits, dose response (AID 588604); assay type: functional
Sequence of Multidrug resistance protein CDR2 (P78595 whole entry): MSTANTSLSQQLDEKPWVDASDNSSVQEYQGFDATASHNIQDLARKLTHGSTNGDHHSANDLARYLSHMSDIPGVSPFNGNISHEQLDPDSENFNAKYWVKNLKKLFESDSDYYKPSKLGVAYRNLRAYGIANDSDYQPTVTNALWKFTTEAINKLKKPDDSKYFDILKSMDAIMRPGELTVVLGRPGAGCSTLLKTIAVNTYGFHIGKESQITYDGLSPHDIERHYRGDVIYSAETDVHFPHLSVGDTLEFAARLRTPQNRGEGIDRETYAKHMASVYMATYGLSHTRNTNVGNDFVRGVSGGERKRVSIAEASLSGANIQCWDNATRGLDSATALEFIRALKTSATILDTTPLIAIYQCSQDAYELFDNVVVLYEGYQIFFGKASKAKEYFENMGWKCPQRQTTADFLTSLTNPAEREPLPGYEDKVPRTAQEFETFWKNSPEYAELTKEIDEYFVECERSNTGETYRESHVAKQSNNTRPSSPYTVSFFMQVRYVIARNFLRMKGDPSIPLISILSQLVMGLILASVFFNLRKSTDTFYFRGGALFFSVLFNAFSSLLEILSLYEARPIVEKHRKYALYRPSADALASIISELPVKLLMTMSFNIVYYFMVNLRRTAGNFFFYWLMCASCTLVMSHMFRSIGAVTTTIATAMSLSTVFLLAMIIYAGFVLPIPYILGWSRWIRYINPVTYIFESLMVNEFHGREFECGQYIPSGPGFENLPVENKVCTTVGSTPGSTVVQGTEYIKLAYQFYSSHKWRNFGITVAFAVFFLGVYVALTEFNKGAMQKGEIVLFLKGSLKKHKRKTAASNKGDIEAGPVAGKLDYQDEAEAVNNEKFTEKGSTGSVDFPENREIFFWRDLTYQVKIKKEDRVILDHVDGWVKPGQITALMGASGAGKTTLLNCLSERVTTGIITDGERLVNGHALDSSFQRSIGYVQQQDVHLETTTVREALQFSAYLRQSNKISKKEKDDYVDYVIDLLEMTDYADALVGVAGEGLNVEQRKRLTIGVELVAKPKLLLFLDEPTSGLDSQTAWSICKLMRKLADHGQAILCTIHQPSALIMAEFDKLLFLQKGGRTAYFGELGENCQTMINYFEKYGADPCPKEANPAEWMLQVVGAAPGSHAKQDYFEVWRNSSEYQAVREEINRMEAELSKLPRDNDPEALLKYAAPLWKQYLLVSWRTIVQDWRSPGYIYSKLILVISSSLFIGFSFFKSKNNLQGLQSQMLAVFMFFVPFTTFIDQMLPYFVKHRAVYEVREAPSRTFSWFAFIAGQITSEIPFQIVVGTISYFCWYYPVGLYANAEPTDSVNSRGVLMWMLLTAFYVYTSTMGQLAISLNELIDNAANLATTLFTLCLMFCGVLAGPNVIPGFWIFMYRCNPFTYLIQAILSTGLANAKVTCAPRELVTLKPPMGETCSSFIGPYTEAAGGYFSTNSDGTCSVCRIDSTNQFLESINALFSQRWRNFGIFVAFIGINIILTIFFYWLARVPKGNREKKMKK

[4] = target: T1, Replicative DNA helicase DnaB (Mycobacterium tuberculosis, UniProt P9WMR3); test: DnaB intein splicing inhibitors, dose response, biochemical, cell-free fluorescence (AID 449749); assay type: functional
T1 sequence (P9WMR3 whole entry): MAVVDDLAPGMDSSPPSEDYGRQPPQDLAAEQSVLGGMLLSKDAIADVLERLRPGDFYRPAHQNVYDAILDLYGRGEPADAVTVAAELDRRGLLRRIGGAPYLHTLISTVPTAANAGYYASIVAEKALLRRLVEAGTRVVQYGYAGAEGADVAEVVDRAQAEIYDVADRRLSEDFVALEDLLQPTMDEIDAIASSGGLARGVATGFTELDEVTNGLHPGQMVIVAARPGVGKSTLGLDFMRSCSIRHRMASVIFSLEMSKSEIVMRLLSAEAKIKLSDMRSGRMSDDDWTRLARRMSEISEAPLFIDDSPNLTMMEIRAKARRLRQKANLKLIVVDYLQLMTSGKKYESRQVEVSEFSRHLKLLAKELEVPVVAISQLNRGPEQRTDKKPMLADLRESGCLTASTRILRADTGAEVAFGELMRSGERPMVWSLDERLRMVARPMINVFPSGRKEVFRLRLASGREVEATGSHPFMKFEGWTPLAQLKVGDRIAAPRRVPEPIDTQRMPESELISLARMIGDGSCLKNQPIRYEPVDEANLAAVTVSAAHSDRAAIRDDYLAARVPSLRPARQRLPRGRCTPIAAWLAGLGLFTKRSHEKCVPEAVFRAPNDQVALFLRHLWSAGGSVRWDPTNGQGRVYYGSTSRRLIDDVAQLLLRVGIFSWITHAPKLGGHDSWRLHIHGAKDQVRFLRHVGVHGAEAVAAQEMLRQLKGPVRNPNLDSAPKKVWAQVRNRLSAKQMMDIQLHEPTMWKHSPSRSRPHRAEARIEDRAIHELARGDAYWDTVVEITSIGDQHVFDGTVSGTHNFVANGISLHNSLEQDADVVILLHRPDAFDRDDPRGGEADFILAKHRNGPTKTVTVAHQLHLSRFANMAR

Protein RecA = target: T2, Protein RecA (Mycobacterium tuberculosis, UniProt P9WHJ3); test: Fluorescence Cell-Free Homogeneous Dose Retest to Identify Inhibitors of RecA-Intein Splicing Activity. [Related pubchem assays (depositor defined):AID2097, AID2223, AID489010, AID492950]; assay type: functional
T2 sequence (P9WHJ3 whole entry): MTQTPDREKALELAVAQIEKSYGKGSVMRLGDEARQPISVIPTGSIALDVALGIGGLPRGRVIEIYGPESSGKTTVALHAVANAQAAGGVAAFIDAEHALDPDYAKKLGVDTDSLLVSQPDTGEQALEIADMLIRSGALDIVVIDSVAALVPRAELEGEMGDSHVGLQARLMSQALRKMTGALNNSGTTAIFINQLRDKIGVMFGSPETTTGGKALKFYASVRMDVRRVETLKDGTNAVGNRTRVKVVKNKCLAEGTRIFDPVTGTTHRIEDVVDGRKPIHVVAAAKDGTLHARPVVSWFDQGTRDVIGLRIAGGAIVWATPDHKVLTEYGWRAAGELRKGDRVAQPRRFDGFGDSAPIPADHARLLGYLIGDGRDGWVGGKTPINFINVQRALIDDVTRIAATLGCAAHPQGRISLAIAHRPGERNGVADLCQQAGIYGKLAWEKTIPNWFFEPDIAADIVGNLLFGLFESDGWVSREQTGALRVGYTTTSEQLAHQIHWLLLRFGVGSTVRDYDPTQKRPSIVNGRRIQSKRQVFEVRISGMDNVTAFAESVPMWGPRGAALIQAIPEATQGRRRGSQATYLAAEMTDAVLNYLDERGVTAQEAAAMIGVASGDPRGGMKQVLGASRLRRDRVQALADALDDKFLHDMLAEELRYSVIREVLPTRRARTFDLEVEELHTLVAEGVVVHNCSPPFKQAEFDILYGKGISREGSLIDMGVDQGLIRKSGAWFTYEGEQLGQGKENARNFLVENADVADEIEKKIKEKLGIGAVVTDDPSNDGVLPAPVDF

Nonstructural protein 1 = Nonstructural protein 1 (Influenza A virus, UniProt Q194T2); assay type: functional, Influenza A virus (A/California/07/2009(H1N1))
Sequence of Nonstructural protein 1 (Q194T2 whole entry): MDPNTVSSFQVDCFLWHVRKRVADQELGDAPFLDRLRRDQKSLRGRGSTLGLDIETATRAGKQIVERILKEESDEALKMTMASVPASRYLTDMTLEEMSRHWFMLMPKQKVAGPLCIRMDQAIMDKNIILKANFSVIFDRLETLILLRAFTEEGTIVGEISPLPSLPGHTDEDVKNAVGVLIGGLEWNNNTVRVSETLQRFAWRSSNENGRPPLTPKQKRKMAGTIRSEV

Sequence of Neurotensin receptor type 1 (P30989 whole entry): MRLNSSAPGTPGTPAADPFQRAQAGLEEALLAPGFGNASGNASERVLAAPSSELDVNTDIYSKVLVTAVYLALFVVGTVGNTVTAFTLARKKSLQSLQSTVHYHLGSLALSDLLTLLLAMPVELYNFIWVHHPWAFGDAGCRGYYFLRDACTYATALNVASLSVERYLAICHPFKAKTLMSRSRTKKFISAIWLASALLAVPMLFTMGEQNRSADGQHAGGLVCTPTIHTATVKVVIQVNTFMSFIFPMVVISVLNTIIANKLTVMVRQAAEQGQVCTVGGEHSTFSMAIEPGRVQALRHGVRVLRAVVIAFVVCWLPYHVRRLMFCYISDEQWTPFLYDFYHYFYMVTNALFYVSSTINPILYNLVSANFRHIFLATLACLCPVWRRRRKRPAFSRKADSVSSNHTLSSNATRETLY

CCCCCc1cc(=O)oc2c(C(CCN3CCCC(C)C3)c3ccc(N(C)C)cc3)c(OC)cc(OC)c12 (stereo unspecified)
active: EC50 [1] 17.7 µM | AC50 [2] 5.3 µM | EC50 [3] 25.4 µM | AC50 [4] 8.48 µM | EC50 (Protein RecA) 8.08 µM | IC50 (Nonstructural protein 1) 5.48 µM
